Assay results as given in publication PMC3475717, “A Spiroligomer α-Helix Mimic That Binds HDM2, Penetrates Human Cells and Stabilizes HDM2 in Cell Culture” (PLoS ONE, 2012).
Entries after “also recorded” stand apart in the source; their conditions may differ.

Experiments:
HDMX = target: T1, HDMX (Homo sapiens, UniProt O15151); assay: binding experiments with HDMX
T1 sequence (O15151 1-490): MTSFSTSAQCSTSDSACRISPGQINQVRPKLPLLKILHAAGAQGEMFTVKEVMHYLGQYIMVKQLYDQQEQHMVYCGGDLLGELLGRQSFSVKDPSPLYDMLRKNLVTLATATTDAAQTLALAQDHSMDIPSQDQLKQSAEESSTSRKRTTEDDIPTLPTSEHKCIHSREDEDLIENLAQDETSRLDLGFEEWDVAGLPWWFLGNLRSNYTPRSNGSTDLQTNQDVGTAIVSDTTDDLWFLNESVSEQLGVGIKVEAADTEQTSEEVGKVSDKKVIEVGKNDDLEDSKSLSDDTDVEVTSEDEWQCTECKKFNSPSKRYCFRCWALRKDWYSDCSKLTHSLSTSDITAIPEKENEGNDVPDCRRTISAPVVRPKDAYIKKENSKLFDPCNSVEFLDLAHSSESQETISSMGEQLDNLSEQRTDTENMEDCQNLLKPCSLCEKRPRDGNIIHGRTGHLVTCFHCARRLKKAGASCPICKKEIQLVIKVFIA

[1] = system: HDM2, p53Y220C and p21 in Huh7 cells; assay: Western blot analysis of HDM2, p53 and p21; type: cell-based, human
Method: Huh7 cells were incubated with spiroligomer 1 and Nutlin-3 in media at 2, 5, 10 and 20 µM for 17 hours at 37°C. […] Huh7 cells were then incubated with 1 at 15 µM and cells were harvested at 2, 4, 6, 8, 12 and 24 hours. […]
Cell Culture and Treatment. HepG2 (expressing wild-type p53) and Huh7 (expressing mutant p53) cell lines were purchased from the American Type Culture Collection (ATCC) and cultured as monolayers in Dulbecco’s modified Eagle’s medium (DMEM) (Invitrogen) supplemented with 100 mM nonessential amino acid solution, 100 mM sodium pyruvate, 100 U/mL penicillin, 100 μg/mL streptomycin, and 10% heat inactivated fetal bovine serum (FBS) (all from Hyclone).
Cells were maintained at 37° C and 5% CO2 and were treated with media that contained 0.5%
FBS. Nutlin-3 (Sigma) was dissolved in 0.01% DMSO (Sigma).
Both nutlin-3 and spiroligomers were added into the medium for final concentrations of 2 µM, 5 µM, 10 µM and 20 µM for 24 hours. For the western blot experiments detailed below, the time length for incubation with bis-peptide was 17 hours. […]
Western Blotting. For protein extraction, cells were lysed in cell lysis buffer (Cell Signaling) with a protease inhibitor cocktail for 20 minutes on ice. Protein extracts (50 μg) were separated by SDS-PAGE electrophoresis, transferred to nitrocellulose membranes (Schleicher & Schuell), and incubated overnight with primary antibodies to p53, HDM2, p21, and β-actin (all from Santa Cruz Biotechnology). The blots were developed using ECL plus detection system (Amersham Biosciences) and exposed to Kodak imaging films (Kodak BioMax). Images were quantified using ImageJ software (NIH).
Figure S.5. Detection of bis-peptide 1 and Nutlin-3 in HepG2 (left) and Huh7 (right) cells. The concentration of each compound is given in μM and the three proteins (HDM2, p53 and p21) bands are […]

[2] = system: mRNA for HDM2 in Huh7 cells; assay: quantitative real-time PCR and end-point PCR of HDM2; type: cell-based, human; settings: β-actin as loading control
Method: Huh7 cells were incubated with spiroligomer 1 and Nutlin-3 in media at 2, 5, 10 and 20 µM for 17 hours at 37°C. […] Huh7 cells were then incubated with 1 at 15 µM and cells were harvested at 2, 4, 6, 8, 12 and 24 hours. […] Our hypothesis is that compound 1 stabilizes HDM2 to proteolysis. Studies are underway to determine the mechanism of HDM2 stabilization by compound 1.
RNA Extraction, Reverse Transcription and PCR Analysis. Total RNA was extracted using High Pure RNA Isolation Kit (Roche Applied Science) according to enclosed instructions. cDNA was prepared using RETROscript Reverse Transcription Kit (Ambion). HDM2 primers (Ensembl […]
(forward) and 5'-[…]-3' (reverse). These primers recognize cDNAs of all HDM2 isoforms with p53 binding sequence7 and generate 102 bp amplicon. β-actin primers for 243 bp PCR transcript (Ensemble gene: Actb, ENSRNOG00000034254) were 5’- […]
[…]-3’ (forward) and 5’-[…]-3’ (reverse).
Primers were designed using Primer3Plus Web Interface. cDNA was amplified using FastStart SYBR Green Master Kit (Roche Applied Science). Real-time quantitative PCR was performed using Stratagene Mx 3005P QPCR system. PCR samples were amplified in 40 cycles; each cycle consisted of 60 sec of denaturation at 95 °C, 60 sec of annealing at 60 °C, and 60 sec of elongation at 72 °C. […]
Figure S.7. Real-time quantitative PCR (A.) and end-point PCR (B.) analysis of HDM2 in Huh7 cells […]

[3] = Huh7, 2, 5, 10 and 20 µM, 17 hours, 37°C

CC(C)CN1C(=O)[C@@H]2C[C@@]3(CN2C(=O)[C@@]12C[C@H]1C(=O)N(Cc4ccc(Cl)c(Cl)c4)[C@]4(C[C@@H]5C(=O)N[C@@H](CCc6ccccc6)C(=O)N5C4)C(=O)N1C2)NC(=O)[C@@H](CCCCNC(=S)Nc1ccc2c(c1)C(=O)OC21c2ccc(O)cc2Oc2cc(O)ccc21)NC3=O [Compound 1]
selectivity HDM2 versus HDMX (HDMX; Kd HDM2 0.4 µM versus Kd HDMX 19 µM): selective for HDM2
Kd (HDMX; data not shown): 19 µM
p53Y220C levels with time ([1]; Huh7, 15 µM, harvested at 2, 4, 6, 8, 12 and 24 hours): no change in p53Y220C levels with time; also recorded: no effect on p53Y220C levels
p21 levels [1, 3]: did not change
p53Y220C levels [1, 3]: did not change
HDM2 levels relative to control cells ([1]; Huh7, 2, 5, 10 and 20 µM, 17 hours, 37°C, dose-dependent): more than 30 fold
level of mRNA for HDM2 [2]: no effect; also recorded: no difference in HDM2 expression levels
